Test results as given in PMC3019153 (PLoS ONE, 2011).
Several values for one entry are separate records, joined by “and”; a condition that tells them apart may be missing. Equal values may be shown once. Entries after “also recorded” stand apart in the source; their conditions may differ.

Columns and labels:
[1] = molecular target: T1, mycobacterial dephosphocoenzyme A kinase K14A mutant (Mycobacterium tuberculosis, UniProt P9WPA3, K14A); type: biochemical
[2] = molecular target: mycobacterial dephosphocoenzyme A kinase G8A mutant (Mycobacterium tuberculosis, UniProt P9WPA3, G8A); type: biochemical
[3] = molecular target: mycobacterial dephosphocoenzyme A kinase L114A mutant (Mycobacterium tuberculosis, UniProt P9WPA3, L114A); type: biochemical
[4] = molecular target: T2, mycobacterial dephosphocoenzyme A kinase R140K mutant (Mycobacterium tuberculosis, UniProt P9WPA3, R140K); type: binding
[5] = molecular target: T3, mycobacterial dephosphocoenzyme A kinase D32E mutant (Mycobacterium tuberculosis, UniProt P9WPA3, D32E); type: biochemical
[6] = molecular target: T4, mycobacterial dephosphocoenzyme A kinase D32A mutant (Mycobacterium tuberculosis, UniProt P9WPA3, D32A); type: biochemical
[7] = molecular target: mycobacterial dephosphocoenzyme A kinase R140A mutant (Mycobacterium tuberculosis, UniProt P9WPA3, R140A); type: biochemical
[8] = molecular target: T5, wild type mycobacterial dephosphocoenzyme A kinase (CoaE) (Mycobacterium tuberculosis, UniProt P9WPA3); type: binding; conditions: pH 7.8
T5 sequence (P9WPA3 1-407): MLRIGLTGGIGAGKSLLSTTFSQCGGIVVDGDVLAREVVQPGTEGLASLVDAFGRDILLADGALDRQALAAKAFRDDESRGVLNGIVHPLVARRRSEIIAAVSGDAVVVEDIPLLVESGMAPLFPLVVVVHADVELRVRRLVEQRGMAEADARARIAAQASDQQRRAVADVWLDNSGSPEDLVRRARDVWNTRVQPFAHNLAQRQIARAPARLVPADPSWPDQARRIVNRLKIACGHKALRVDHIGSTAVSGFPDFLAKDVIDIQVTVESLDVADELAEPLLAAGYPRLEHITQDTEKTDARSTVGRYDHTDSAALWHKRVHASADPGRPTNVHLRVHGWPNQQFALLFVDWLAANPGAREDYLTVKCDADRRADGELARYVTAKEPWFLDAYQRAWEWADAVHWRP

[9] = molecular target: T4, mycobacterial dephosphocoenzyme A kinase D32A mutant; type: binding; conditions: pH 7.8
[10] = molecular target: T1, mycobacterial dephosphocoenzyme A kinase K14A mutant; type: binding; conditions: pH 7.8
[11] = molecular target: T3, mycobacterial dephosphocoenzyme A kinase D32E mutant; type: binding; conditions: pH 7.8
[12] = molecular target: T5, wild type mycobacterial dephosphocoenzyme A kinase (CoaE); type: biochemical
[13] = molecular target: T2, mycobacterial dephosphocoenzyme A kinase R140K mutant; type: biochemical

Row | Structure (SMILES) | Kcat [1] | Km [1] | Kcat [2] | Km [2] | Kcat [3] | Km [3] | Kcat [5] | Km [5] | increase in the affinity of the mutant enzyme [5] | Kcat [6] | Kcat [7] | ΔH [10] | ΔS [10] | also measured
1 | Nc1ncnc2c1ncn2[C@@H]1O[C@H](COP(=O)(O)OP(=O)(O)OP(=O)(O)O)[C@@H](O)[C@H]1O [ATP] | 2.34 and 2.34 min^−1 | 86.7 µM | 0.04272 s⁻¹ | 59.8 µM | 0.0192 s⁻¹ | 63.9 µM | 0.0666 s⁻¹ | 34.5 µM | 60.58% | 0.014 s⁻¹ | nr |  |  | increase in the Km [1]: 50%; reduction in the Kcat [1]: 19%; binding to ATP (in words) [4]: poor binding; also recorded: very poor binding; Kcat, % of the WT [6]: about 28%; Km [7]: nr
2 | CC(C)(COP(=O)(O)OP(=O)(O)OC[C@H]1O[C@@H](n2cnc3c(N)ncnc32)[C@H](O)[C@@H]1O)[C@@H](O)C(=O)NCCC(=O)NCCS [DCoA, dephosphocoenzyme A] | 1.532 min⁻¹ | 75.8 µM | 0.02572 s⁻¹ | 37.2 µM | 0.0569 s⁻¹ | 80.9 µM | 0.0327 s⁻¹ | 21.7 µM | 62.17% | 0.00171 s⁻¹ | nr | -3576 calM^−1 and −3576(±115.7) calM^−1 | 5.73(±0.37) calM^−1K^−1 | ΔH [8]: −3719((±201.5) calM^−1; ΔS [8]: 6.32(±0.34) calM^−1K^−1; ΔH [9]: −1559(±72.9) calM^−1; ΔS [9]: −35.1(±0.98) calM^−1K^−1; binding of the leading substrate (in words) [4]: reasonably well; Ka ([4]; pH 7.8): 2.17(±1.23E3) M^−1*10^−4; ΔH ([4]; pH 7.8): −7723 calM^−1; ΔS ([4]; pH 7.8): −6.5((±0.49) calM^−1K^−1; Ka [10]: 1.32(±1.45E3) M^−1*10^−4; Ka [11]: 2.12 (±2.61E3) M^−1*10^−4; ΔH [11]: −4355(±138.7) calM^−1; ΔS [11]: 4.94(±0.42) calM^−1K^−1; Kcat [12]: 0.0257 s⁻¹ and 0.0293 s⁻¹; Kcat [13]: 0.00755 s⁻¹; Kcat, % of the WT [13]: ~15%; Km [13]: 181 µM; Km [6]: 501 µM; increase in the Km [6]: 15 fold
3 | Nc1ncnc2c1ncn2[C@@H]1O[C@H](CO[P@](=O)(O)O[P@](=O)(O)O[P@@](=O)(O)S)[C@@H](O)[C@H]1O [NHATP, ATP-γS] |  |  |  |  |  |  |  |  |  |  |  | −1826 calM^−1 and −1826(±195.7) calM^−1 | 13.8 calM^−1K^−1 and 13.8(±0.59) calM^−1K^−1 | N (binding) ([4]; pH 7.8): No binding
